Test results: patent US7205433B2, “Crystal of amino acid ester salt and process for producing the same” (Ajinomoto Co., Inc., priority 2002, dated 2007)

What was measured:
Format in all cases: physicochemical
[1] = Experimental Example 7: evaluation of hygroscopicity by weight gain over time (60 to 66% RH); settings: 24 EC
Experimental: The L-Ala-OMe HCl salt, L-Ala-OMe 4-EBS salt, L-Ala-OMe 2,4-DMBS salt, and L-Ala-OMe 2,5-DMBS salt were measured in an amount of about 0.3 g each, left standing in a thermostatic chamber at temperature of 24 EC and a humidity of 60 to 66% RH, and the hygroscopicity was compared based on the weight gain with the lapse of time. A part of the crystal of the L-Ala-OMe HCl salt was liquefied in 10 minutes, and the entirety became a sherbet in 20 minute. The liquefied portion increased thereafter with the lapse of time. After 80 minutes, the whole was liquefied.

[2] = Experimental Example 4: comparison of hygroscopicity by weight gain over time (40 to 46% RH); settings: 24° C.
Experimental: The L-Ala-OEt HCl salt, L-Ala-OEt MsOH salt, L-Ala-OEt BsOH salt, L-Ala-OEt 4-CBS salt, L-Ala-OEt 4-EBS salt, L-Ala-OEt 2,4-DMBS salt, and L-Ala-OEt 2,5-DMBS salt were measured in an amount of about 0.3 g each, left standing in a thermostatic chamber at a temperature of 24° C. and a humidity of 40 to 46% RH, and the hygroscopicity was compared based on the weight gain with the lapse of time. A part of the crystal of the L-Ala-OEt HCl salt was liquefied in 30 minutes, and the liquefied portion increased thereafter with the lapse of time. After 100 minutes, the whole mass became like a sherbet.

[3] = Experimental Example 5: comparison of hygroscopicity by weight gain over time (60 to 66% RH); settings: 24 EC
Experimental: The L-Ala-OMe HCl salt, L-Ala-OEt MsOH salt, L-Ala-OEt BsOH salt, L-Ala-OEt 4-CBS salt, L-Ala-OEt 4-EBS salt, L-Ala-OEt 2,4-DMBS salt, and L-Ala-OEt 2,5-DMBS salt were measured in an amount of about 0.3 g each, left standing in a thermostatic chamber at a temperature of 24 EC and a humidity of 60 to 66% RH, and the hygroscopicity was compared based on the weight gain with the lapse of time.

Row | Compound | weight increase rate (%) ([2]; 0 minutes) | weight increase rate (%) ([2]; 15 minutes) | weight increase rate (%) ([2]; 30 minutes) | weight increase rate (%) ([2]; 45 minutes) | weight increase rate (%) ([2]; 60 minutes) | weight increase rate (%) ([2]; 75 minutes) | weight increase rate (%) ([2]; 90 minutes) | weight increase rate (%) ([2]; 120 minutes) | weight increase rate (%) ([2]; 150 minutes) | weight increase rate (%) ([2]; 180 minutes) | weight increase rate (%) ([3]; 0 minutes) | weight increase rate (%) ([3]; 10 minutes) | weight increase rate (%) ([3]; 20 minutes) | weight increase rate (%) ([3]; 35 minutes) | weight increase rate (%) ([3]; 50 minutes) | weight increase rate (%) ([3]; 65 minutes) | weight increase rate (%) ([3]; 80 minutes) | weight increase rate (%) ([3]; 95 minutes) | weight increase rate (%) ([3]; 110 minutes) | weight increase rate (%) ([3]; 125 minutes) | also measured
1 | L-alanine methyl ester 4-ethylbenzenesulfonate [L-Ala-OMe 4-EBS salt] |  |  |  |  |  |  |  |  |  |  |  |  |  |  |  |  |  |  |  |  | weight increase rate (%) ([1]; 0 min): 0.00%; weight increase rate (%) ([1]; 10 min): 0.06%; weight increase rate (%) ([1]; 20 min): 0.06%; weight increase rate (%) ([1]; 35 min): 0.06%; weight increase rate (%) ([1]; 50 min): 0.06%; weight increase rate (%) ([1]; 65 min): 0.03%; weight increase rate (%) ([1]; 80 min): 0.06%; weight increase rate (%) ([1]; 95 min): 0.06%; weight increase rate (%) ([1]; 110 min): 0.03%; weight increase rate (%) ([1]; 125 min): 0.06%; weight increase rate (%) ([1]; 140 min): 0.06%; weight increase rate (%) ([1]; 155 min): 0.06%; weight increase rate (%) ([1]; 170 min): 0.06%; weight increase rate (%) ([1]; 185 min): 0.06%; weight increase rate (%) ([1]; 200 min): 0.06%
2 | CCOC(=O)[C@H](C)N.O=S(=O)(O)c1ccccc1 [L-Ala-OEt BsOH salt, L-alanine ethyl ester benzenesulfonate] | 0.00 | 0.66 | 0.63 | 0.75 | 0.93 | 1.05 | 1.08 | 1.23 | 1.02 | 1.08 | 0.00 | 1.46 | 1.80 | 1.97 | 2.11 | 2.22 | 2.25 | 2.28 | 2.22 | 2.22 | weight increase rate (%) ([3]; 140 minutes): 2.22%; weight increase rate (%) ([3]; 155 minutes): 2.22%; weight increase rate (%) ([3]; 170 minutes): 2.28%; weight increase rate (%) ([3]; 185 minutes): 2.25%; weight increase rate (%) ([3]; 200 minutes): 2.25%
3 | L-alanine methyl ester 2,5-dimethylbenzenesulfonate [L-Ala-OMe 2,5-DMBS salt] |  |  |  |  |  |  |  |  |  |  |  |  |  |  |  |  |  |  |  |  | weight increase rate (%) ([1]; 0 min): 0.00%; weight increase rate (%) ([1]; 10 min): 0.06%; weight increase rate (%) ([1]; 20 min): 0.06%; weight increase rate (%) ([1]; 35 min): 0.06%; weight increase rate (%) ([1]; 50 min): 0.03%; weight increase rate (%) ([1]; 65 min): 0.03%; weight increase rate (%) ([1]; 80 min): 0.03%; weight increase rate (%) ([1]; 95 min): 0.00%; weight increase rate (%) ([1]; 110 min): 0.03%; weight increase rate (%) ([1]; 125 min): 0.06%; weight increase rate (%) ([1]; 140 min): 0.00%; weight increase rate (%) ([1]; 155 min): 0.00%; weight increase rate (%) ([1]; 170 min): 0.03%; weight increase rate (%) ([1]; 185 min): 0.03%; weight increase rate (%) ([1]; 200 min): 0.06%
4 | L-alanine ethyl ester 2,4-dimethylbenzenesulfonate [L-Ala-OEt 2,4-DMBS salt] | 0.00 | 0.00 | 0.00 | 0.00 | 0.03 | 0.03 | 0.06 | 0.06 | 0.06 | 0.06 | 0.00 | 0.00 | 0.00 | 0.00 | 0.00 | 0.00 | 0.03 | 0.00 | 0.03 | 0.03 | weight increase rate (%) ([3]; 140 minutes): 0.03%; weight increase rate (%) ([3]; 155 minutes): 0.03%; weight increase rate (%) ([3]; 170 minutes): 0.06%; weight increase rate (%) ([3]; 185 minutes): 0.06%; weight increase rate (%) ([3]; 200 minutes): 0.06%
5 | L-alanine methyl ester 2,4-dimethylbenzenesulfonate [L-Ala-OMe 2,4-DMBS salt] |  |  |  |  |  |  |  |  |  |  |  |  |  |  |  |  |  |  |  |  | weight increase rate (%) ([1]; 0 min): 0.00%; weight increase rate (%) ([1]; 10 min): 0.33%; weight increase rate (%) ([1]; 20 min): 0.37%; weight increase rate (%) ([1]; 35 min): 0.37%; weight increase rate (%) ([1]; 50 min): 0.37%; weight increase rate (%) ([1]; 65 min): 0.37%; weight increase rate (%) ([1]; 80 min): 0.37%; weight increase rate (%) ([1]; 95 min): 0.37%; weight increase rate (%) ([1]; 110 min): 0.40%; weight increase rate (%) ([1]; 125 min): 0.43%; weight increase rate (%) ([1]; 140 min): 0.40%; weight increase rate (%) ([1]; 155 min): 0.43%; weight increase rate (%) ([1]; 170 min): 0.47%; weight increase rate (%) ([1]; 185 min): 0.50%; weight increase rate (%) ([1]; 200 min): 0.50%
6 | CCOC(=O)[C@H](C)N.O=S(=O)(O)c1ccc(Cl)cc1 [L-Ala-OEt 4-CBS salt, L-alanine ethyl ester 4-chlorobenzenesulfonate] | 0.00 | 1.55 | 1.51 | 1.48 | 1.81 | 2.01 | 2.14 | 2.30 | 2.17 | 2.27 | 0.00 | 2.26 | 2.83 | 3.38 | 3.77 | 4.10 | 4.31 | 4.46 | 4.58 | 4.70 | weight increase rate (%) ([3]; 140 minutes): 4.76%; weight increase rate (%) ([3]; 155 minutes): 4.82%; weight increase rate (%) ([3]; 170 minutes): 4.94%; weight increase rate (%) ([3]; 185 minutes): 4.94%; weight increase rate (%) ([3]; 200 minutes): 5.03%
7 | L-alanine ethyl ester 2,5-dimethylbenzenesulfonate [L-Ala-OEt 2,5-DMBS salt] | 0.00 | 0.00 | 0.00 | 0.06 | 0.10 | 0.16 | 0.19 | 0.26 | 0.32 | 0.32 | 0.00 | 0.00 | 0.03 | 0.03 | 0.09 | 0.06 | 0.06 | 0.06 | 0.12 | 0.06 | weight increase rate (%) ([3]; 140 minutes): 0.09%; weight increase rate (%) ([3]; 155 minutes): 0.09%; weight increase rate (%) ([3]; 170 minutes): 0.09%; weight increase rate (%) ([3]; 185 minutes): 0.09%; weight increase rate (%) ([3]; 200 minutes): 0.12%
8 | L-alanine ethyl ester 4-ethylbenzenesulfonate [L-Ala-OEt 4-EBS salt] | 0.00 | 0.00 | 0.00 | 0.00 | 0.13 | 0.19 | 0.22 | 0.41 | 0.54 | 0.36 | 0.00 | 0.09 | 0.09 | 0.15 | 0.15 | 0.15 | 0.15 | 0.15 | 0.18 | 0.15 | weight increase rate (%) ([3]; 140 minutes): 0.18%; weight increase rate (%) ([3]; 155 minutes): 0.18%; weight increase rate (%) ([3]; 170 minutes): 0.18%; weight increase rate (%) ([3]; 185 minutes): 0.15%; weight increase rate (%) ([3]; 200 minutes): 0.21%
